Data set [1] concerns melanoma B 16. Kind of data set: Inhibition of the initiation of pulmonary metastases in melanoma B 16. It is filed as in vivo. The conditions noted are these: melanoma B 16, mouse, three i.p. administrations of 1 mg/kg. The source says: (§1) The compounds according to the invention are also active in vivo. […] The compounds according to the invention also reduce the formation of oedema in the model of carrageenan inflammation, (compare Table 3) and inhibit the formation of metastases from B-16 melanoma (method of Honn, et. al. Science 212, 1270, 1981).

For data set [2] the following is noted: systemic administration (for example orally); cited from earlier work.
Data set [3] deals with cyclooxygenase. The conditions noted are these: cited from earlier work.
Data set [4] deals with Lipoxygenase in PMN Leucocytes. The experiment in a line: Inhibition of lipoxygenase in PMN leucocytes (liberation of 5-HETE and leukotriene B4). The following applies: in vitro. Format: cell-based, humans and rabbits. Here is the method: The polymorphonuclear leucocytes of humans and of rabbits metabolise arachidonic acid to 5-hydroxy-5,8,11,14-eicosatetraenoic acid (5-HETE) and leukotriene B4 (5S, 12R-dihydroxy-6 cis, 8,10-trans-14 cis-eicosatetraenoic acid). The inhibition of the liberation of 5-HETE and leukotriene B4 from the leucocytes provides a measure of the lipoxygenase-inhibitory effect of the compounds according to the invention. (Compare Table 1).
The test with human leucocytes is carried out by the method of Borgeat and Samuelsson (j. Biol. Chem. 254; 2643, 1979 and Proc. Natl. Acad. Sci. USA, 76, 2148 (1979), and with rabbit leucocytes by the method of Walker and Parish (Inter. Archs. Allergy appl. Immun. 66, 83, 1981).

Data set [5] has as its target T1, Lipoxygenase in platelet (Homo sapiens, UniProt P18054).
T1 construct: the metabolism of radioactively labelled arachidonic acid on washed human platelets is used; endogenous in cells; host or cells: washed human platelets
T1 sequence (P18054 1-663): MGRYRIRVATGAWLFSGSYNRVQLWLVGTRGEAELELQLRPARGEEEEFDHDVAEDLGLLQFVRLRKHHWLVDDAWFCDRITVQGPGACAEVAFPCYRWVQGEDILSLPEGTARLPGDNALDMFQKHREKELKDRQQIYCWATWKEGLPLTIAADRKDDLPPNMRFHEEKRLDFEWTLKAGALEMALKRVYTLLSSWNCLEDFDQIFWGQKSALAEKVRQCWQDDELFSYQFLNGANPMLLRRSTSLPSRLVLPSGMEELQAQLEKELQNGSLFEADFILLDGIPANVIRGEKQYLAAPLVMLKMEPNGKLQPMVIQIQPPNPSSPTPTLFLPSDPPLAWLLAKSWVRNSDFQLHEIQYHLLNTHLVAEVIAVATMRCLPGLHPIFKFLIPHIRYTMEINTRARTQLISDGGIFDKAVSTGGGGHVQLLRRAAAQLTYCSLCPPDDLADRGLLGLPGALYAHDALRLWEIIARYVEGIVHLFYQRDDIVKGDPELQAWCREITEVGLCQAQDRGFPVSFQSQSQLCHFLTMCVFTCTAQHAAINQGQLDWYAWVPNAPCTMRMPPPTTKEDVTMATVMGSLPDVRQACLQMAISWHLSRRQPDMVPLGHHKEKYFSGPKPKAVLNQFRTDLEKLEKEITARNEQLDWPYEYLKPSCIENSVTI
Kind of data set: Inhibition of lipoxygenase in washed human platelets (HETE synthesis from radioactively labelled arachidonic acid). It is filed as cell-based. The following applies: in vitro. Here is the method: In this test method, the metabolism of radioactively labelled arachidonic acid on washed human platelets is used. In this in vitro test, the radioactively labelled metabolites are extracted from the reaction mixture and separated by thin-layer chromatography. The autoradiogram is evaluated on a thin-layer scanner. Under these test conditions, the labelled metabolites are separated from the unreacted arachidonic acid and can then be evaluated quantitatively. The distribution of radioactivity over the products of cyclooxygenase formed during the metabolism, thromboxane B2 (TXB2) and 12-hydroxy-5,8,10-heptadecatrienoic acid (HHT) and the product of lipoxygenase, 12-hydroxy-5,8,11,14-eicosatetraenoic acid (HETE), under the influence of the inhibitors provides a measure of the inhibition of the enzymes.
The inhibition of lipoxygenase by the compounds according to the invention can be measured by the inhibition of synthesis of HETE. It emerges that the synthesis of TXB2 and of HHT remains unaffected, whilst the conversion of arachidonic acid decreases. […] (Compare Table 1).

For data set [6], the system named is prostacyclin synthesis in strips of rabbit aorta. Kind of data set: Stimulation of prostacyclin synthesis in strips of rabbit aorta. The following applies: Oryctolagus cuniculus, 1 h, read-out: Stimulation in % compared to control (prostacyclin synthesis); for activation at 2 µg/mL: 2.10^6 g/ml of substance. It is filed as cell-based.
Data set [7] relates to carrageenan oedema. The experiment in a line: Inhibition of carrageenan oedema formation. The conditions noted are these: rat, oral administration of 25 mg/kg. It is filed as in vivo.
From the text: as §1
For orientation: Carrageenan injected into the paw causes an acute inflammation.

A value given as a limit tells only on which side of the number the result lay.

One may read the inhibition in vivo as the percentage by which the read-out fell short of the control. A low value points to a response near the control.

For `Cn1ncc2c1Nc1cc3ccccc3cc1O2` [Compound 19], the “% Inhibition of the initiation of pulmonary metastases” value in data set [1] is 30%. Regarding `NC1=NN(c2cccc(C(F)(F)F)c2)CC1` [3-amino-1-(m-trifluoromethylphenyl)-2-pyrazoline], in data set [2], the “toxic side effects, in words” value was “toxic side effects on systemic administration (for example orally)”. Moreover, in data set [3], the “action of known lipoxygenase inhibitors, in words” value is “either also act as inhibitors of cyclooxygenase or only act at very high concentrations”. On to `Cc1ccc2c(c1)Nc1[nH]ncc1O2` [drawing 14], for which the “Minimum concentration (g/ml) for inhibition of Lipoxygenase in PMN Leucocytes” value in data set [4] is given as 10^-6 g/ml. Moreover, the “Minimum concentration (g/ml) for inhibition of Lipoxygenase in platelet” value in data set [5] is 10^-6 g/ml. Consider `Clc1ccc2c(c1)Nc1[nH]ncc1O2` [drawing 13], for which the “Minimum concentration (g/ml) for inhibition of Lipoxygenase in PMN Leucocytes” value in data set [4] is listed as 10^-6 g/ml. For the same molecule, the “Minimum concentration (g/ml) for inhibition of Lipoxygenase in platelet” value in data set [5] was 10^-6 g/ml. `CCCCCC#CCC#CCC#CCC#CCCCC(=O)O` [5,8,11,14-eicosatetraynoic acid]: in data set [3], the “action of known lipoxygenase inhibitors, in words” value was “either also act as inhibitors of cyclooxygenase or only act at very high concentrations”. On to `O=C1CCN(c2ccccc2)N1` [phenidone], for which the “action of known lipoxygenase inhibitors, in words” value in data set [3] is “either also act as inhibitors of cyclooxygenase or only act at very high concentrations”. As for `Cc1ccc2c(c1)Nc1[nH]ncc1S2`, the “Minimum concentration (g/ml) for inhibition of Lipoxygenase in PMN Leucocytes” value in data set [4] is on record as 10^-6 g/ml. Further, the “Minimum concentration (g/ml) for inhibition of Lipoxygenase in platelet” value in data set [5] is recorded as 10^-6 g/ml. `CN1c2ccccc2Oc2cnn(C)c21` [Compound 24]: the activation at 10 µg/mL in data set [6] (at 10^-5 g/ml substance concentration) stood at 100%. For the molecule `c1ccc2c(c1)Nc1[nH]ncc1S2` [Compound 12], the activation at 2 µg/mL in data set [6] was found to be 80%. On to `CC(Cc1ccc(O)c(O)c1)C(C)Cc1ccc(O)c(O)c1` (stereo not shown) [nordihydroguaiaretic acid], for which the “action of known lipoxygenase inhibitors, in words” value in data set [3] is given as “either also act as inhibitors of cyclooxygenase or only act at very high concentrations”. `Clc1ccc2c(c1)Nc1[nH]ncc1S2`: the “Minimum concentration (g/ml) for inhibition of Lipoxygenase in platelet” value in data set [5] is 10^-6 g/ml. `c1ccc(-n2ncc3c2Nc2ccccc2O3)cc1` [Compound 9]: the inhibition in vivo at 25 mg/kg in data set [7] was determined as 75.1%. For the molecule `Cn1ncc2c1Nc1cc(Cl)ccc1O2`, in data set [4], the “Minimum concentration (g/ml) for inhibition of Lipoxygenase in PMN Leucocytes” value was 10^-6 g/ml. Further, the “Minimum concentration (g/ml) for inhibition of Lipoxygenase in platelet” value in data set [5] is recorded as 10^-6 g/ml. As for `CN(C)S(=O)(=O)c1ccc2c(c1)Oc1cn[nH]c1N2`, the “Minimum concentration (g/ml) for inhibition of Lipoxygenase in platelet” value in data set [5] is 10^-5 g/ml. For `c1ccc2cc3c(cc2c1)Nc1[nH]ncc1O3` [Compound 18], the “% Inhibition of the initiation of pulmonary metastases” value in data set [1] stood at 36%. In the case of `CC(=O)n1cc2c(n1)N(C)c1ccccc1C2` [Compound 27], the inhibition in vivo at 25 mg/kg in data set [7] turned out to be 62.4%. Consider `Cn1ncc2c1Nc1ccccc1O2`, for which the “Minimum concentration (g/ml) for inhibition of Lipoxygenase in PMN Leucocytes” value in data set [4] is 10^-6 g/ml. Moreover, the “Minimum concentration (g/ml) for inhibition of Lipoxygenase in platelet” value in data set [5] was 10^-6 g/ml. For `COc1ccc2c(c1)N(C)c1[nH]ncc1O2` [Compound 36], the inhibition in vivo at 25 mg/kg in data set [7] came to 60%.

Turning to `O=C(O)Cn1cc2c(n1)N(C1CCCCC1)c1ccccc1O2` [Compound 40, 9-Cyclohexylpyrazolo[4,3-b][1,4]benzoxazine-2-acetic acid], the “Minimum concentration (g/ml) for inhibition of Lipoxygenase in PMN Leucocytes” value in data set [4] is on record as > 10^-5 g/ml. For the same molecule, the inhibition in vivo at 25 mg/kg in data set [7] was found to be 44%. On to `c1cnc2c(c1)Oc1cn[nH]c1N2` [Compound 17], for which the activation at 2 µg/mL in data set [6] was 200%. With `CN1c2ccccc2Oc2cn[nH]c21` [Compound 10], the inhibition in vivo at 25 mg/kg in data set [7] stood at 73.4%. Still for that read-out and setting: the same measure for `O=S1(=O)c2ccccc2Nc2[nH]ncc21` [Compound 16]: 45.4%.

In the case of `c1ccc2cc3c(cc2c1)Nc1[nH]ncc1O3` [drawing 29], the “Minimum concentration (g/ml) for inhibition of Lipoxygenase in PMN Leucocytes” value in data set [4] is recorded as 10^-6 g/ml. Also, in data set [5], the “Minimum concentration (g/ml) for inhibition of Lipoxygenase in platelet” value is 10^-6 g/ml.

Values taken from patent US4552874A, “Pyrazolooxazines, pyrazolothiazines, and pryazoloquinolines and their use as medicaments” (Bayer Aktiengesellschaft, priority 1982, dated 1985).
